# Assay results reported in patent US20060142395A1, “Modulation of intracellular calcium signaling by N-acylethanolamines” (University of North Texas Health Science Center, priority 2003, published 2006).
# Read-outs that look alike come from different tables or passages of the source.
# Columns and labels:
# [1] = biological target: T1, type 2 IP3R from nuclei of HepG2 cells (Homo sapiens, UniProt Q14571); assay: Planar lipid bilayer single channel recording of native type 2 IP3R; assay type: biochemical
# T1 construct: biophysical properties of native type 2 IP3R isolated from cells; endogenous in cells; host or cells: HepG2 cells, nuclei / nuclear envelope membranes
# Excerpt: Electrophysiological recording of ICCs is a well established technique used to measure the effects on calcium levels based on external stimuli (83, 115-117). The planar lipid bilayer technique has been used by the principal investigator to determine the function of ICCs in neurons and non-neuronal cells. The inventors isolated type 2 IP3R from nuclei of HepG2 cells using the same techniques described herein. These studies represent the first determination of the biophysical properties of native type 2 IP3R isolated from cells. All previous studies on type 2 IP3R used artificially expressed type 2 IP3R of cells that had been transfected with the respective cDNA (118-119). Single channel activity was examined using the Planar Lipid Bilayer Membrane technique. […] The lack of feedback inhibition by high concentrations of Ca^2+ is again similar to what has been observed in the recombinant type 2 IP3R (118, 121). […] Both the increased sensitivity to IP3 and the lack of Ca2+-induced inactivation distinguishes the type 2 IP3R from the well-characterized type 1 IP3R. By isolating the receptor with its associated proteins from a functional cellular environment, properties influenced by accessory proteins can be readily assessed with single channel electrophysiology. Data obtained from these experiments analyzing the single channel characteristics of ICCs will provide the biophysical information necessary to correlate intracellular signaling data with function in live cells and in vivo, as shown hereinbelow.
# Planar lipid bilayer single channel electrophysiology. ER vesicles or artificial liposomes containing ICCs may be incorporated into planar lipid bilayers and channel activity may be recorded electrophysiologically with the planar lipid bilayer being equivalent to the plasma membrane patch of patch clamp electrophysiology. […] Proper insertion of the ICCs may be monitored by appropriate stimulation of channels on the cytosolic side (IP3R: Ca^2+, IP3; RyR: Ca^2+, caffeine, cADPR; pc-2: Ca^2+, activating membrane potential; 77, 83, 115-117, 141). […] Channel insertion and activity may be recorded with Ag/AgCl electrodes contacting the buffer filled compartments via KCl containing agarose bridges. Activity of a single channel protein can be monitored because it passes enough current to be measured electronically using an amplifier. […] Single channel conductance, voltage-dependence, dwell times and dependence on intracellular free Ca^2+ concentrations may be determined using standard methods in the presence of blockers of other ICCs (IP3R: no IP3, heparin; RyR: ryanodine, ruthenium red; pc-2: lack of activating membrane potential; 77, 83). […]
# [2] = system: HT22 neurons; assay: Neuroprotection from L-glutamate toxicity (oxidative stress); assay type: cell-based
# Description: NAE protects neurons in vitro from oxidative stress and glutamate toxicity. Next, the neuroprotective potential effects of NAEs were determined by culturing an immortalized hippocampal neuron cell line, HT 22, a model system used extensively. […] The mechanism of neurotoxicity is depletion of intracellular glutathione stores by inhibition of the cysteine transport and subsequently of glutathione synthesis.
# The following assays may be used to assess neuronal viability and different stages of cell death. Optical assessment._Changes in cell morphology (apoptotic and necrotic morphology) and cell number may be used as an initial assessment of neurotoxicity and neuroprotection (see preliminary results in FIG. 8) using bright field differential interference contrast microscopy (Olympus IX-70, Olympus Corp., Japan; SimplePCI, C-imaging systems, Compix, Inc.).
# [3] = system: Akt; conditions: primary hippocampal neurons, 100 μM, 60 min, total Akt unchanged
# Description: Western Blot Analysis. Cells may be lysed in lysis buffer (50 mM Tris (pH 7.4), 150 mM NaCl, 10% glycerol, 1 mM EGTA, 1 mM Na3VO4, 5 μM ZnCl2, 100 mM NaF, 1% Triton X-100, 10 μg/ml aprotinin, 1 μg/ml leupeptin, and 1 mM PMSF) and snap frozen in liquid nitrogen. Following homogenization, by trituration of the cells through a 22 Ga needle, and centrifugation at 100,000×g for 15 min at 4° C., resulting supernatants (lysates) are normalized for protein content (Lowry Assay, Biorad DC Protein Assay Kit). 25 mg of protein from each sample will then be separated on a 10% polyacrylamide gel (SDS/PAGE) followed by transfer onto PVDF membranes (0.22 mm pore size, Biorad, Hercules, Calif.). The membranes are then blocked overnight with 3% BSA (Fraction V; Sigma) or in Tris-buffered saline containing 0.2% Tween-20 (TBS-T) and probed with the appropriate antibody. […] For Akt phosphorylation, rabbit anti-phosphoAkt (Ser473) or rabbit anti-phosphoAkt(Thr308) (Cell Signaling Technology); for Akt protein assessment, rabbit anti-Akt (New England Biolabs). Binding of the primary antibody to the membrane may be detected using a secondary antibody (either goat anti-rabbit or goat anti-mouse), conjugated to horseradish peroxidase (HRP; 1:40,000, Pierce, Rockford, Ill.) and visualized using enzyme-linked chemiluminescence (ECL; Amersham, Arlington Heights, Ill.). […]
# [4] = biological target: T2, type 2 RyR (Mus musculus, UniProt E9Q401); assay: Planar lipid bilayer single channel recording of RyR2; assay type: biochemical
# T2 construct: First, type 2 RyR were isolated from mouse; from tissue; host or cells: mouse
# T2 sequence (E9Q401 whole entry): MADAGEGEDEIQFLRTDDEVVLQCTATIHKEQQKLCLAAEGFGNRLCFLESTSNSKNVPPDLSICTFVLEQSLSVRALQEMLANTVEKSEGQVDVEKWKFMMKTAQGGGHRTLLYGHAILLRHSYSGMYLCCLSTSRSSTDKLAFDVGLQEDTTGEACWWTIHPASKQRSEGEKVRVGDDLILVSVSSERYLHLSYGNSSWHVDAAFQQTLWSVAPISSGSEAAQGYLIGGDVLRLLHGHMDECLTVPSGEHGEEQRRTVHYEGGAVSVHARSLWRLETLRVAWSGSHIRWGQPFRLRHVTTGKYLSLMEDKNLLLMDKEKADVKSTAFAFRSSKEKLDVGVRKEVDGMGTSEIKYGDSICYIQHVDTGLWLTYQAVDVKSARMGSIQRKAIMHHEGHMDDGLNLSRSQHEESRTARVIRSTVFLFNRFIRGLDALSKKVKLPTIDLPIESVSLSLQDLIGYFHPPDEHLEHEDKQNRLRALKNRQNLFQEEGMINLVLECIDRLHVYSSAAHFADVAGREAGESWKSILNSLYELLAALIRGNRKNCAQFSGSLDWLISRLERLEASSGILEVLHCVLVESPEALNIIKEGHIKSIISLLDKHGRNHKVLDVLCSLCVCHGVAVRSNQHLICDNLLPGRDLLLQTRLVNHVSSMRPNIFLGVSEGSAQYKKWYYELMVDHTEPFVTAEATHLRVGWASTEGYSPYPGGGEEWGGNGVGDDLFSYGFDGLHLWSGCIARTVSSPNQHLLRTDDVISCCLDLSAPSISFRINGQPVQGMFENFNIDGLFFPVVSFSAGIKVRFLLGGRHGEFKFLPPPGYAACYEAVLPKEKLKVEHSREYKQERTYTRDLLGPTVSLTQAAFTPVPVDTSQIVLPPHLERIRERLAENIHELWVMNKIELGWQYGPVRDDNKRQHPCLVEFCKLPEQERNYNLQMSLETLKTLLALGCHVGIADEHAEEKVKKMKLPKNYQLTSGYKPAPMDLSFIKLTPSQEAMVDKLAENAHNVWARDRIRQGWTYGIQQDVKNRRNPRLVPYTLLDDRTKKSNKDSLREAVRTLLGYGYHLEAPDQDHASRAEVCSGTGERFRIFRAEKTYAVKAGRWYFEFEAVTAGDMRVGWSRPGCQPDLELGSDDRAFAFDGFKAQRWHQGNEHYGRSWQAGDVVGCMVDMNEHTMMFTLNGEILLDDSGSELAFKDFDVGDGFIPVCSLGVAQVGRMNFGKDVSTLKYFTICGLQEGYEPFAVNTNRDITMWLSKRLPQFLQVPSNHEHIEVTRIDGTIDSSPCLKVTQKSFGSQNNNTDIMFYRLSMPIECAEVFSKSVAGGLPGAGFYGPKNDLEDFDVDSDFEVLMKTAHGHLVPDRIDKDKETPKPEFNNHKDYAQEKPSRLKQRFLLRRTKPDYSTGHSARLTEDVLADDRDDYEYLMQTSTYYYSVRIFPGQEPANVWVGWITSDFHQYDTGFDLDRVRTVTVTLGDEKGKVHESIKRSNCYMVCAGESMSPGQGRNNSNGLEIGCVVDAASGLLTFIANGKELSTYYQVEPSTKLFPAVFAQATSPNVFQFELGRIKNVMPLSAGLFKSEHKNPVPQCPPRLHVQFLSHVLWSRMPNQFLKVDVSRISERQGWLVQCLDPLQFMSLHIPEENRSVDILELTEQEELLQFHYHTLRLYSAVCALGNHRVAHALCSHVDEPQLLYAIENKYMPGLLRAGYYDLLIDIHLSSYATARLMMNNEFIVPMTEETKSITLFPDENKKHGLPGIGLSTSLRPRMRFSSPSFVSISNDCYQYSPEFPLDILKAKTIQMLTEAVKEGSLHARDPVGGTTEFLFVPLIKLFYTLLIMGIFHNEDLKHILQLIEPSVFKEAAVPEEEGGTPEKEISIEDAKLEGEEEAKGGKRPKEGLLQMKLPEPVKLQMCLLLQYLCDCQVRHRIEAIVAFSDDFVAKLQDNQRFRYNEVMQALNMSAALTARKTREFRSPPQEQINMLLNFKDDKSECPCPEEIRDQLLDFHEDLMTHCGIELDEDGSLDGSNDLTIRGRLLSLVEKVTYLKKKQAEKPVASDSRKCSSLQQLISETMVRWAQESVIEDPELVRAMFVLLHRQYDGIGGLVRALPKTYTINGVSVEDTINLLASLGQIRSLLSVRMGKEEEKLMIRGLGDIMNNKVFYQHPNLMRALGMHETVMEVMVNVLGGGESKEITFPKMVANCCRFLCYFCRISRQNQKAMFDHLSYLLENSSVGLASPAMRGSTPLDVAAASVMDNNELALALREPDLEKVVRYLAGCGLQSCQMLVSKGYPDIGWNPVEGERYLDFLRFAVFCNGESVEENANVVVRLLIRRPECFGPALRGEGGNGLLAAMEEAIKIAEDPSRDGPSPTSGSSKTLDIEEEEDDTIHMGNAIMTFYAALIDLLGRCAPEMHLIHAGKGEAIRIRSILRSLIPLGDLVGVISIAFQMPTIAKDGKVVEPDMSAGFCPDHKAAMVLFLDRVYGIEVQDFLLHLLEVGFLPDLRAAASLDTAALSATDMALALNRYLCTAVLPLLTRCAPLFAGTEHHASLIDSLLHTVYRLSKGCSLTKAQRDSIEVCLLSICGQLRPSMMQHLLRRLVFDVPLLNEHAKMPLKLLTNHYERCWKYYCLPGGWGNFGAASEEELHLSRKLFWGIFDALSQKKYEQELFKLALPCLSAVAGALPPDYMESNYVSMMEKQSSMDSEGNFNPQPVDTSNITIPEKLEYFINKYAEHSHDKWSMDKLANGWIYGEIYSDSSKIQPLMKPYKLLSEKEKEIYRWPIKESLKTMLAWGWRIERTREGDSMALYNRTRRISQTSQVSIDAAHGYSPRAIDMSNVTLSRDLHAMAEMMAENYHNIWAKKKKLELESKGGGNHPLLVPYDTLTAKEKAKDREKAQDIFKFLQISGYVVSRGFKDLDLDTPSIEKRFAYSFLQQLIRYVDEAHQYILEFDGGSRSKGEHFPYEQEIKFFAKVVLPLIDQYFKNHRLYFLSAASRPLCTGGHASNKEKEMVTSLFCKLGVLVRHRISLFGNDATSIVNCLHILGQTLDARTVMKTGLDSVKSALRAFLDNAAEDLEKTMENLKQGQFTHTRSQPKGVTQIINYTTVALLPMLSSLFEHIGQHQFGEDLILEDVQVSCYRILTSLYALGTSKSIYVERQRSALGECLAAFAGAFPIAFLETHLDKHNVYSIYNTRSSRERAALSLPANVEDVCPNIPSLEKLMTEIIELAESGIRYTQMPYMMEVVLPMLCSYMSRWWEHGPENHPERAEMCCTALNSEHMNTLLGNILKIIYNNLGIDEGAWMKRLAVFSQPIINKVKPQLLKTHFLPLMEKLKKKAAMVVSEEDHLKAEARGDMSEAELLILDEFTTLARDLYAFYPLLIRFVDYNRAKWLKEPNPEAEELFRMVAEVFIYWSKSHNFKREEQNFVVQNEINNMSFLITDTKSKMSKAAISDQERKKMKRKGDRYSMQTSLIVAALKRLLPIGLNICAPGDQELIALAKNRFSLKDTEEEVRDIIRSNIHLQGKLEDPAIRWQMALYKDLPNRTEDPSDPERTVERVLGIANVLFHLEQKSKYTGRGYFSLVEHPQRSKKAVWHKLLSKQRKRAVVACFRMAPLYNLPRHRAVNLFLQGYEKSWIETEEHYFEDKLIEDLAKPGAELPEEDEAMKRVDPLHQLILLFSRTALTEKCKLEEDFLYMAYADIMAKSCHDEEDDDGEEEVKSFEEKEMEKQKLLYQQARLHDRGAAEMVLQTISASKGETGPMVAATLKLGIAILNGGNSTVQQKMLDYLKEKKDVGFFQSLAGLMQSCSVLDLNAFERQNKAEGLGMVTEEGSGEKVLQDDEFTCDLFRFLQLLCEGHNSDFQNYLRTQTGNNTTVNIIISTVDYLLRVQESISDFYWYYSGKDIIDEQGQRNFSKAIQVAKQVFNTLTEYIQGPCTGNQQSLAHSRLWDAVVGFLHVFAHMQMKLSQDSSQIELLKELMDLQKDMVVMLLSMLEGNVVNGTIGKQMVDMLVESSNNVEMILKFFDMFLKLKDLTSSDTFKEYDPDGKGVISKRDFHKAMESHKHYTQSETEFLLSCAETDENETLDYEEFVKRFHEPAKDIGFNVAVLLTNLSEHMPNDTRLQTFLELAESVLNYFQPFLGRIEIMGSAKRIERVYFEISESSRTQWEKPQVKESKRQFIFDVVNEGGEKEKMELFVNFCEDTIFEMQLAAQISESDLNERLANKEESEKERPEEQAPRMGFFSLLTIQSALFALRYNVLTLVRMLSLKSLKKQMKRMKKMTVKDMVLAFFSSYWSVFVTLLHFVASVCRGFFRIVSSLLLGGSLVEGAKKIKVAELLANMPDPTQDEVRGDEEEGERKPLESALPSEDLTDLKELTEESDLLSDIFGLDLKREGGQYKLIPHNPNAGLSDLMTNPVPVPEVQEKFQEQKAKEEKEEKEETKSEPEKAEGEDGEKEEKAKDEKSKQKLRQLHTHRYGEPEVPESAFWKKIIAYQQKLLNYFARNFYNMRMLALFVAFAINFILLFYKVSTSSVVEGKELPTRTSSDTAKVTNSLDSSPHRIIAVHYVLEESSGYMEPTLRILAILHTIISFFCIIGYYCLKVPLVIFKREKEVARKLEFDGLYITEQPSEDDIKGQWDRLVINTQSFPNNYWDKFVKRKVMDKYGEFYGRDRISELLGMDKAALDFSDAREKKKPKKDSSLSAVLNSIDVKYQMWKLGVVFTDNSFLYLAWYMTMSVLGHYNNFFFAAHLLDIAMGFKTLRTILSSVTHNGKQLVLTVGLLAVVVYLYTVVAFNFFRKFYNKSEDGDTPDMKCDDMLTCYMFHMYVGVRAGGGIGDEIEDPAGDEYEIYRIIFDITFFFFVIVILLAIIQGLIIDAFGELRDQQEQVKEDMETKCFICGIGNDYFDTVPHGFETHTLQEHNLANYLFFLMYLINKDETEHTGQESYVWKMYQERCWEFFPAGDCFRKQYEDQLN
# Description: NAEs differentially regulate the activity of ICCs. First, type 2 RyR were isolated from mouse. Briefly, single channel activity was examined using the Planar Lipid Bilayer Membrane technique. […] Channel activity was initiated by cytosolic Ca^2+ concentrations of 10 nM and higher.
# (§1) Next, the effect of NAE 12:0 on mouse RyRs was determined. NAE 12:0 dose-dependently and isoform-specifically regulated the function of RyRs and represent the first pharmacological tool to differentially manipulate individual intracellular calcium channel isoforms (FIG. 5). […] Measured at sub-maximally activating Ca^2+ concentrations (RyR type I: pCa 6; RyR type II: pCa 6.5) 500 nM NAE 12:0 increased RyR type I activity by 42% whereas the same concentration decreased RyR type II activity by 64% (FIG. 5).
# Planar lipid bilayer single channel electrophysiology. ER vesicles or artificial liposomes containing ICCs may be incorporated into planar lipid bilayers and channel activity may be recorded electrophysiologically with the planar lipid bilayer being equivalent to the plasma membrane patch of patch clamp electrophysiology. Lipid bilayer membranes may be formed in a hole in a Teflon partition, which separates two buffer filled compartments (phosphatidylethanolamine and phosphatidylserine, 3:1 w/w, dissolved in decane, 40 mg lipid per ml, Avanti Polar Lipids, Alabaster, Ala.). Vesicles containing pc-2 may be added to one compartment (corresponding to the cytosolic compartment) and fuse with the bilayer leaving the channels contained in the vesicle as the only electrical connection between the two compartments. The buffer on the cytosolic side of the channel is a 250 mM HEPES-Tris solution, pH 7.35 and a 250 mM HEPES, 55 mM Ba(OH)2 (or defined concentration of other current carrier, such as Ca(OH)2 or Mg(OH)2) solution, pH 7.35 constitutes the buffer on the trans side of the bilayer. Proper insertion of the ICCs may be monitored by appropriate stimulation of channels on the cytosolic side (IP3R: Ca^2+, IP3; RyR: Ca^2+, caffeine, cADPR; pc-2: Ca^2+, activating membrane potential; 77, 83, 115-117, 141). Improperly inserted channels that are less than 5% under the described conditions will not be included in the analysis. Channel insertion and activity may be recorded with Ag/AgCl electrodes contacting the buffer filled compartments via KCl containing agarose bridges. Activity of a single channel protein can be monitored because it passes enough current to be measured electronically using an amplifier. Altering the divalent cation species on the luminal side of the channel that carries the current will test ion selectivity. Single channel conductance, voltage-dependence, dwell times and dependence on intracellular free Ca^2+ concentrations may be determined using standard methods in the presence of blockers of other ICCs (IP3R: no IP3, heparin; RyR: ryanodine, ruthenium red; pc-2: lack of activating membrane potential; 77, 83). Modulating reagents may be added to the cytosolic side of the protein using a perfusion system (77, 83).
# [5] = system: ovariectomized (OVX) rats; assay: Middle cerebral artery occlusion, cerebral ischemia-reperfusion injury; assay type: in vivo
# [6] = system: primary cultures of hippocampal neurons; assay: Ca2+ imaging of L-glutamate induced Ca2+ transients (fluo-3); assay type: cell-based; conditions: 100 μM, 30 min preincubation, 100 μM L-Glutamate stimulus
# Description: Both single wavelength (high sensitivity) and ratiometric (quantitative analysis) fluorescent Ca^2+ indicator dyes may be used. Various parameters may be studies, such as substrate adherence, dye concentration, and culture conditions, have been optimized for measuring acutely isolated neurons as well as neuronal cell lines, as will be known to the skilled artisan. NAEs influence intracellular Ca2+ homeostasis. Next, studies were conducted using primary cultures of hippocampal neurons to determine the effects of NAEs on intracellular Ca^2+ signaling. In these studies, the influence of a bath-based application of NAE 16:0 on intracellular Ca^2+ signaling of primary hippocampal neurons was analyzed. Hippocampal neurons like most other CNS neurons express RyR isoform 2. Some neurons also express RyR3 and RyR1 is found predominantly in glial cells.
# FIGS. 6A to 6E demonsatrate the effect of NAEs on primary isolated and cultured hippocampal neurons were exposed to 100 μM L-Glutamate. FIG. 6A show the DIC image of a neuron and the fluorescence of the calcium indicator dye fluo-3 in the same cell at resting levels (FIG. 6B) and after L-Glutamate stimulation (FIG. 6C; scale bar: 25 μm). […] When the hippocampal neurons were stimulated with L-glutamate, this triggers an influx of extracellular Ca^2+ and a prolonged release of Ca^2+ from intracellular stores (FIG. 6D). […]
# [7] = biological target: T3, RyR type I (Mus musculus, UniProt E9PZQ0); assay: Planar lipid bilayer single channel recording of RyR type I; assay type: biochemical
# T3 construct: from tissue; host or cells: mouse
# Description: as §1
# Planar lipid bilayer single channel electrophysiology. ER vesicles or artificial liposomes containing ICCs may be incorporated into planar lipid bilayers and channel activity may be recorded electrophysiologically with the planar lipid bilayer being equivalent to the plasma membrane patch of patch clamp electrophysiology. […] Proper insertion of the ICCs may be monitored by appropriate stimulation of channels on the cytosolic side (IP3R: Ca^2+, IP3; RyR: Ca^2+, caffeine, cADPR; pc-2: Ca^2+, activating membrane potential; 77, 83, 115-117, 141). […] Channel insertion and activity may be recorded with Ag/AgCl electrodes contacting the buffer filled compartments via KCl containing agarose bridges. Activity of a single channel protein can be monitored because it passes enough current to be measured electronically using an amplifier. […]
# [8] = system: rats and mice; conditions: transient ischemia with reperfusion and permanent occlusion; cited from earlier work
# [9] = biological target: recombinant type 2 IP3R (Homo sapiens, UniProt Q14571); conditions: read-out: EC50-value for IP3; cited from earlier work
# [10] = biological target: type 1 IP3R (Homo sapiens, UniProt Q14643); conditions: read-out: half maximal activation by IP3; cited from earlier work
# [11] = system: IP3R; assay: Western blot of phosphothreonine on IP3R in retina tissue in vitro; assay type: cell-based, mouse; conditions: 100 nM, 60 min, vs vehicle control
# Excerpt: Chemo-luminescence-enhanced Western blotting as a sensitive method to evaluate changes in intracellular signaling. A crucial factor in the determination of signaling proteins mediating neuroprotection is the specificity of reagents used for immunolocalization. As disclosed herein, a number of antibodies identified and characterized (Tables 1 and 2) and the conditions that allow full identification of signaling proteins mediating NAE responses through NAEs in neurons provided. Using the sensitive chemo-luminescence-enhanced Western blotting technique, changes were detected in signaling protein composition. Furthermore, immunodetection methods allow an analysis of the changes in the phosphorylation status of signaling proteins in experiments assessing the neuroprotective functions of NAEs. The high temporal and quantitative sensitivity of the assay system may be especially useful in our in vitro and in vivo model systems of neurotoxicity which will measure small but functionally relevant initial changes associated with neuronal damage. In additional studies, the effects of lipophilic hormones on the phosphorylation status of intracellular calcium channels was determined. […]
# The high temporal and quantitative sensitivity of the assay system may be especially useful in our model systems which will produce functionally relevant initial changes associated with neuronal damage.
compound,measurement,setting,value
calmodulin,effect on lack of Ca2+ inhibition of the channel,"[1]; excess amounts, preliminary experiments",did not change this behavior
CCCCCCCCCCCCCCCC(=O)NCCO [NAE 16:0],effect of NAE alone on neuronal viability,[2],no effect
same,"potency in neuroprotection, comparison",[2]; FIG. 10 vs FIG. 9,higher potency in neuroprotection than NAE 12:0
same,phosphorylated/active Akt,[3],significant increase
same,channel open frequency,[4]; 0.1 μM,reduced significantly
same,channel open probability,[4]; 0.1 μM,reduction
same,dwell time,[4]; 0.1 μM,reduced significantly
same,channel activity at higher concentrations,"[4]; higher, micromolar concentrations, FIG. 4",almost complete block
same,single channel amplitude (not affected),[4]; in presence of NAE 16:0,3.9±0.1 pA
same,single channel conductance (not affected),[4]; in presence of NAE 16:0,110±8 pS
same,RyR2 channel activity,"[4]; pCa 6, n=3, FIG. 4",dose-dependently decreased
same,"protection of cerebral cortex and basal ganglia (infarct volume, TTC)","[5]; 10 mg/kg sc, 1 hr MCAO, 24 hr reperfusion, N=7/group, P<0.05 vs OVX",protected
same,protection of CNS tissue from MCA occlusion-induced ischemic damage,"[5]; acute (sc 6 h prior and immediately before MCAO, 10 mg/kg) and chronic (1 day prior) regimen",effectively protected
same,amplitude of Ca2+ transients,[6],significantly decreased
same,duration of Ca2+ transients,[6],significantly decreased
"N.N.N.N.N.N.N.N.N.N.N.N.N.N.[Cl-].[Cl-].[Cl-].[Cl-].[Cl-].[Cl-].[O-2].[O-2].[Ru+3].[Ru+3].[Ru+4] [ruthenium red, reference compound]",block of channel activity,[4]; ruthenium red 20 μM,blocked
heparin,block of channel activity,[1]; heparin 50 μg/ml,blocked
CCCCCCCCCCCC(=O)NCCO [NAE 12:0],protection from L-glutamate toxicity,[2],dose-dependently protects
same,effect of NAE alone on neuronal viability,"[2]; HT-22 cells, even at high concentrations, no L-glutamate",no effect
same,number of dead cells after L-glutamate insult,[2]; in the presence of the NAE,significantly reduced
same,decrease of RyR type II activity,"[4]; 500 nM, pCa 6.5, n=3, FIG. 5",64%
same,change of single channel conductance and amplitude,[4]; RyR 2,Neither NAE 12:0 nor NAE 18:2 changed
same,increase of RyR type I activity,"[7]; 500 nM, pCa 6, n=3, FIG. 5",42%
same,change of single channel conductance and amplitude,[7]; RyR 1,Neither NAE 12:0 nor NAE 18:2 changed
C[C@]12CC[C@@H]3c4ccc(O)cc4CC[C@H]3[C@@H]1CC[C@@H]2O [17β-estradiol],protection,[8],> 50%
"O=P(O)(O)O[C@@H]1[C@H](O)[C@H](O)[C@@H](OP(=O)(O)O)[C@H](OP(=O)(O)O)[C@H]1O [IP3, inositol 1,4,5-trisphosphate]",EC50,[9],58 nM
same,cytosolic IP3 concentration that initiates channel activity,[1],≥ 10 nM
same,EC50,"[1]; native channel, data not shown, read-out: half maximal activation, dependence on cytosolic IP3 concentration",64 nM
same,EC50,[10],500 nM
CC(=O)[C@H]1CC[C@H]2[C@@H]3CCC4=CC(=O)CC[C@]4(C)[C@H]3CC[C@]12C [progesterone],phosphothreonine immunoreactivity on the IP3R,[11],increase
